Data set [1] relates to HEK293T (ACE-negative) cells. The data set can be described thus: MTT cytotoxicity assay in ACE-negative HEK293T. The conditions noted are these: 48 h, mean (95% CI). The format is cell-based, human. The method, then: (§1) MTT assays were performed to study the in vitro antitumor effects of BPP-PTX conjugate as well as free PTX and BPP in various ACE-negative and ACE-positive cell lines. Briefly, the cells (5,000 per well) were seeded in 96-well plates 24 h before treatment. The different drug formulations at concentrations of 0.01-1000 nM PTX or 0.01-1000 nM BPP-PTX and free BPP were added. The cells were cultured for another 48 h. 20 μL of 3-(4,5-dimethylthiazol-2-yl)-2,5-diphenyltetrazolium bromide (MTT) solution (5 mg/mL) was added. The cells were further cultured for 4 h, the medium was removed, and 150 μL DMSO was added to dissolve the MTT-formazan crystals. The optical density (O.D.) values for the untreated group were set as 100% viability. Independent experiments were performed in triplicate.
(§2) Each experiment was performed at least three times. GraphPad Prism 6.0 software was used for IC50 calculations and statistical analyses, including student t-test and two-way ANOVA.

Data set [2] deals with MDA-MB-231 (ACE-positive) cells. The data set can be described thus: MTT cytotoxicity assay in ACE-positive TNBC MDA-MB-231. The conditions noted are these: 48 h, mean (95% CI). The format is cell-based, human. The method, then:
as §1, §2

Data set [3] relates to MDA-MB-468 (ACE-positive) cells. The data set can be described thus: MTT cytotoxicity assay in ACE-positive TNBC MDA-MB-468. The format is cell-based, human. The conditions noted are these: 48 h, mean (95% CI). The method, then:
as §1, §2

For data set [4] the following is noted: for body weight decrease compared with control mice: day 28.
Procedure: Mice were kept at room temperature 25° C. with an alternating 12 h light-dark cycle and were allowed access to food and water. […] MDA-MB-468 cells (5×10^6 cells per mouse) were suspended in PBS and inoculated subcutaneously into the fourth mammary fat pad of athymic nude mice. Tumor growth was monitored every four days by measuring two perpendicular diameters with calipers. […] The tumors were measured with calipers every day, and tumor volumes were calculated using the following formula: a^2×b×0.4, where “a” is the smallest diameter and “b” is the diameter perpendicular to “a”. At the end of the experiment, the mice were sacrificed, and the tumor weights of each animal were analyzed. Blood samples (˜100 μL) were taken from the retro-orbital plexus in heparinized capillary tubes (Modulohm A/S, Herlev, Denmark). Total white blood cell counts were determined manually for each sample using a Neubauer chamber (GMBH, Wertheim, Germany).
Another data set relates to HEK293T-ACE cells. The data set can be described thus: Cytotoxicity in ACE-overexpressed HEK293T-ACE versus control HEK293T. In kind it is cell-based, human. The conditions noted are these: 1-, 10-, and 100 nM; ACE plasmid vs empty plasmid. On the procedure:
(§3) ACE siRNA (h2) (sc-270350) and Control siRNA-A (sc-37007) were purchased from Santa Cruz Biotechnology, Inc. The ACE expression plasmid was bought from Gen Script (Nanjing) Co., Ltd. Transfections were carried out using Lipofectamine 2000 (Invitrogen) according to the manufacturer's instructions.
as §1
(§4) Next, it was determined whether the cytotoxicity of BPP-PTX was mediated by ACE or not. First, the ACE protein was artificially overexpressed in HEK293T cell lines by transfecting ACE-containing plasmid, and the empty plasmid was transfected as a control. […]

A further data set concerns MDA-MB-231-siACE cells. The data set can be described thus: Cytotoxicity in ACE-knockdown MDA-MB-231-siACE versus MDA-MB-231-siCtr. The format is cell-based, human. The following applies: 10- and 100 nM. On the procedure: as §3, §1, §4
The subject of a further data set is MDA-MB-468-siACE cells. The data set can be described thus: Cytotoxicity in ACE-knockdown MDA-MB-468-siACE versus MDA-MB-468-siCtr. The following applies: 10- and 100 nM. In kind it is cell-based, human. On the procedure:
as §3, §1, §4

For a further data set, the system named is MDA-MB-231 cells. The data set can be described thus: Annexin V-FITC/PI apoptosis assay, flow cytometry. In kind it is cell-based, human. The conditions noted are these: 10 nM, 48 h. The method, then:
(§5) 1×10^5 MDA-MB-231 or 1.5×10^5 MDA-MB-468 cells per well were cultured in 6-well plates. After attachment, cells were treated with DMSO or 10 nM PTX or BPP-PTX for 48 h and stained with Annexin V (AV) conjugated with FITC and propidium iodide (PI) using the Annexin V-FITC Apoptosis Assay Kit following the manufacturer's instructions. Stained cells were analyzed with the Cyflow Cube flow cytometer (PARTEC, Germany). Data were analyzed using FlowJo 7.6.5 software.
A general note: In flow cytometry, cells or beads pass a laser one at a time.

For data set [5], the system named is MDA-MB-468 cells. The data set can be described thus: Annexin V-FITC/PI apoptosis assay, flow cytometry. The format is cell-based, human. The following applies: 10 nM, 48 h. On the procedure: as §5
Data set [6] deals with MDA-MB-231 and MDA-MB-468 cells. The data set can be described thus: DAPI staining of nuclei for apoptosis. The format is cell-based, human. The conditions noted are these: 10 nM. On the procedure: The occurrence of apoptosis was evaluated by DAPI staining. Cells (4.0×10^5 cells/well) were seeded and incubated with 10 nM PTX or BPP-PTX for 24 h. Following treatment, the cells were washed with phosphate-buffered saline (PBS) and fixed with 4% paraformaldehyde (Sigma-Aldrich) for 15 min at room temperature 25° C., and then stained in the dark with a DAPI solution for 10 min at room temperature 25° C. Thereafter, the cells were washed with PBS and photographed under an inverted fluorescence microscope (Olympus IX71; Olympus, Tokyo, Japan).

Data set [7] relates to MDA-MB-468 cells. The data set can be described thus: TNBC orthotopic mouse model, tumor growth. In kind it is in vivo. On the procedure:
To test the in vivo efficacy and toxicity of BPP-PTX, an orthotopic mouse model was established. ACE-positive MDA-MB-468 cells were injected orthotopically in the mammary fat pads of the female athymic nude mouse. Once mice attained palpable tumors, they were randomly divided into four groups and treated for 28 days with PBS, free PTX (2.4 μmol/kg), low dose BPP-PTX (2.4 μmol/kg), and high-dose BPP-PTX (9.6 μmol/kg), every 4 days by intraperitoneal injection (i.p.). Tumor growth was monitored by measuring tumor volume every 4 days with a caliper rule. On day 4, after the first injection, the effect of the drugs was not yet detectable since average tumor volumes, as measured with the caliper, were similar in the four groups of mice. […] On day 28, the average tumor volume of mice treated with low-dose BPP-PTX had decreased by about 15% compared to animals treated with free PTX, and by 54% compared to control animals (PBS). Meanwhile, the average tumor volume of mice treated with high-dose BPP-PTX, had decreased by about 30% compared to animals treated with free PTX, and by 62% compared to control animals (FIGS. 5A and 5B). Consistently, the average tumor weight of mice treated with low-dose BPP-PTX was 0.20 g (0.17, 0.24) lower than that of mice treated with free PTX (0.26 g (0.21, 0.31)) and control mice (0.43 g (0.37, 0.49)).

Entries after “also recorded” stand apart in the source; their conditions may differ. Where two headings read alike, the source gives them in different places. Where a SMILES comes first, the peptide text is derived from it. The star is where a group is joined. Paclitaxel(2'-O-succinyl) = CC(=O)O[C@H]1C(=O)[C@@]2(C)[C@H]([C@H](OC(=O)c3ccccc3)[C@]3(O)C[C@H](OC(=O)[C@H](OC(=O)CCC(=O)*)[C@@H](NC(=O)c4ccccc4)c4ccccc4)C(C)=C1C3(C)C)[C@]1(OC(C)=O)CO[C@@H]1C[C@@H]2O

In general, IC50 refers to the concentration that gives 50% inhibition.

Take `CC[C@H](C)[C@H](NC(=O)[C@H](CCC(N)=O)NC(=O)[C@@H]1CCCN1C(=O)[C@H](CCCNC(=N)N)NC(=O)[C@@H]1CCCN1C(=O)[C@H](Cc1c[nH]c2ccccc12)NC(=O)[C@H](CCC(=O)O)NC(=O)CCC(=O)O[C@@H](C(=O)O[C@H]1C[C@@]2(O)[C@@H](OC(=O)c3ccccc3)[C@@H]3[C@]4(OC(C)=O)CO[C@@H]4C[C@H](O)[C@@]3(C)C(=O)[C@H](OC(C)=O)C(=C1C)C2(C)C)[C@@H](NC(=O)c1ccccc1)c1ccccc1)C(=O)N1CCC[C@H]1C(=O)N1CCC[C@H]1C(N)=O` [BPP-PTX] ({Paclitaxel(2'-O-succinyl)}-EWPRPQIPP-NH2): the results for the half-inhibitory concentration (IC50) in data set [1], in data set [2] and in data set [3] were 616 nM, 9.5 nM and 12.3 nM, respectively. Further, the “WBC count decrease after the 28-day treatment compared to before treatment” value in data set [4] (2.4 μmol/kg i.p. every 4 days) is recorded as “about 17%”; in data set [4] (9.6 μmol/kg i.p. every 4 days), approximately 22%. Also, the “body weight loss compared with control mice” value in data set [4] (day 0 to day 24, low dose 2.4 μmol/kg) is recorded as “no body weight loss”. For the same compound, the “body weight decrease compared with control mice” value is reported as approximately 2.8% in data set [4] (2.4 μmol/kg i.p. every 4 days) and approximately 6.4% in [4] (9.6 μmol/kg i.p. every 4 days).

As for `CC(=O)O[C@H]1C(=O)[C@@]2(C)[C@H]([C@H](OC(=O)c3ccccc3)[C@]3(O)C[C@H](OC(=O)[C@H](O)[C@@H](NC(=O)c4ccccc4)c4ccccc4)C(C)=C1C3(C)C)[C@]1(OC(C)=O)CO[C@@H]1C[C@@H]2O` [PTX, Paclitaxel], the IC50 was determined as 6.7 nM in [1] (Homo sapiens, HEK-293T); 3.1 nM in [2] (Homo sapiens); 3 nM in [3] (Homo sapiens). The “cell variability in HEK293T-ACE compared with HEK293T” value with HEK293T-ACE cells is reported as “No differences”. The “cell variability in siACE cells compared with siCtr cells” value in the data set with MDA-MB-231-siACE cells and in the data set with MDA-MB-468-siACE cells was “no difference” in each case. Moreover, the apoptosis entry in the data set on MDA-MB-231 cells and in the data set with MDA-MB-468 cells [5] was “induced apoptosis” each time. In addition, the “nuclei morphology (DAPI)” value in data set [6] was “condensed and fragmented”. The same compound had an average tumor weight in the data set with MDA-MB-468 cells [7] (end of 28-day treatment, 2.4 μmol/kg i.p. every 4 days) of 0.26 g. Also, the “tumor growth compared with control mice” value with MDA-MB-468 cells [7] (i.p. every 4 days, 28 days, PTX 2.4 μmol/kg, BPP-PTX 2.4 and 9.6 μmol/kg) is recorded as “significantly lower; also recorded: clear reduction”. The “WBC count decrease after the 28-day treatment compared to before treatment” value in data set [4] (2.4 μmol/kg i.p. every 4 days) is “about 52%”. For the same compound, in data set [4] (2.4 μmol/kg i.p. every 4 days), the “body weight decrease compared with control mice” value is recorded as “about 6.2%”.

The values above are taken from patent US20210395309A1, “PEPTIDE-DRUG CONJUGATES” (Hong Kong Baptist University, priority 2020, published 2021).
